According to patent publication US20130261133A1, “Therapeutic Compounds for Protozoal and Microbial Infections and Cancer” (THE UNIVERSITY OF MONTANA, priority 2012, published 2013):
“And” between values parts separate entries of the source, which are not always exact repeats. Identical values can stand only once. Like-named read-outs stand apart in the source and are kept apart here.

What was measured:
S. pyogenes = assay: MIC broth microdilution, Alamar Blue; type: cell-based; conditions: minimum inhibitory concentration
S. aureus 13709 = assay: MIC broth microdilution, Alamar Blue; type: cell-based; conditions: minimum inhibitory concentration
C. glabrata = assay: MIC broth microdilution, Alamar Blue; type: cell-based; conditions: minimum inhibitory concentration
C. albicans = assay: MIC broth microdilution, Alamar Blue; type: cell-based; conditions: minimum inhibitory concentration
E. faecalis = assay: MIC broth microdilution, Alamar Blue; type: cell-based; conditions: minimum inhibitory concentration
Leishmania donovani = assay: Antileishmanial assay, Leishmania in infected macrophages (L. donovani); conditions: for IC50: Leishmania donovani, Macrophage, read-out: IC50 Leishmania in infected macrophages; for Selectivity Index: IC50 for HepG2 cells/IC50 for Leishmania donovani
P. aeruginosa = assay: MIC broth microdilution, Alamar Blue; type: cell-based; conditions: minimum inhibitory concentration
B. subtilis = assay: MIC broth microdilution, Alamar Blue; type: cell-based; conditions: minimum inhibitory concentration
[1] = test system: P. falciparum clone W2/Indochina; assay: In vitro malaria assay, [3H]-hypoxanthine incorporation; type: cell-based; conditions: Plasmodium falciparum, W2, 72 h, read-out: IC50 Plasmodium
Description: a. In vitro Parasite Culturing: P. falciparum clone W2/Indochina was grown in continuous culture using RPMI 1640 media containing 10% heat-inactivated type A+ human plasma, sodium bicarbonate (2.4 g/L), HEPES (5.94 g/L) and 4% washed human type A+ erythrocytes. Cultures were gassed with a 90% N2, 5% O2 and 5% CO2 mixture followed by incubation at 37° C. b. Assay Preparation: Test compounds at 5 mg/mL in DMSO were diluted 1:500 and then serially diluted in duplicate over 11 concentrations. P. falciparum cultures with >70% ring stage parasites were diluted to 0.5-0.7% parasitemia and 1.5% hematocrit in RPMI 1640 media. In 96-well plates a volume of 90 μl/well of parasitized erythrocytes was added on top of 10 μL/well of the test compound. A separate plate containing chloroquine, dihydroartemisinin and atovaquone was added to each set of assay plates as control drugs. A Beckman Coulter Biomek 3000 was used to dispense test compounds, control drugs and parasitized erythrocytes into the microtiter plates. Positive and negative controls were included in each plate. Positive controls consisted of parasitized erythrocytes and negative controls consisted of non-parasitized erythrocytes at 1.5% hematocrit in RPMI 1640 media. Assay plates were placed into a modulator incubator chamber and equilibrated with 90% N2, 5% O2 and 5% CO2 mixture then incubated at 37° C. for 48 hours. After 48 hours, approximately 0.05 μCi of [^3H]-hypoxanthine monohydrochloride was added to each well of the assay plates. Plates were put back into the modulator incubation chamber, gassed with the 90% N2, 5% O2 and 5% CO2 mixture then incubated at 37° C. for an additional 24 hours. After 72 hours total incubation time the plates were frozen at −80° C. until later processed for parasite growth determinations. c. Assay Plate Processing: Assay plates were harvested using a Perkin Elmer FilterMate Harvester. The incorporation of [^3H]-hypoxanthine into nucleic acid was measured using a Perkin Elmer Topcount NXT Microplate Scintillation & Luminescence Counter. d. Data Analysis: Data analysis was performed using a custom database manager (Dataspects, Inc). Nonlinear regression analysis was used to calculate EC50.

B. anthracis = type: cell-based; conditions: minimum inhibitory concentration
Leishmania amazonensis = assay: Antileishmanial assay, Leishmania in infected macrophages (L. amazonensis); conditions: Leishmania amazonensis
HepG2 cells = assay: Cytotoxicity against human liver (HepG2) cells, Alamar Blue; type: cell-based
Description: Several of these analogues were also evaluated for cytotoxicity against human liver (HepG2) cells. Of particular interest was that compounds 47 and 48 were approximately an order of magnitude less cytotoxic as compared to compound 1.
Adherent cell lines were maintained in Eagle's Minimal Essential Media (Sigma-Aldrich, St. Louis, Mo., USA) with 2 mM glutamine and Earle's Balanced Salt Solution (HyClone, Logan, Utah, USA) adjusted to contain 1.5 g/L sodium bicarbonate, 0.1 mM non-essential amino acids, 1 mM sodium pyruvate and 10% fetal calf serum. Fetal calf serum used in these assays was lot matched throughout. All cultures were maintained under a humidified 5% CO2 atmosphere at 37° C., had media refreshed twice weekly and were subcultured by trypsinization and resuspension at a ratio of 1:5 each week. Toxicity assays were conducted between passages 10-20. Target compound toxicity was measured by incubating the test compound with the cells for 4 hours, washing the cells and finally treating the cells with Alamar Blue. After 12-24 hours, the fluorescence of the reduced dye was measured. Fluorescence intensity as a function of test compound concentration was fit to the Fermi equation, using non-linear least squares regression analysis, to estimate IC50 values.

[2] = test system: leishmaniasis (LV82 PM infection), liver parasitemia; assay: In vivo efficacy: liver parasitemia in BALB/c mice with leishmaniasis; conditions: 10 mg/kg i.p.; for LDU mean ± SD: group mean, n=4; for % Reduction (Average) in liver parasitemia: infected BALB/c mice; for # of amastigotes per 200 nuclei: liver; for # of amastigotes per 200 nuclei / LDU: individual mice; for LDU: total liver parasitemia
Description: The following protocols were used to prepare the various treatments described in Table 2: • a. Miltefosine ([…] stock solution in sterile PBS): 7.5 mg miltefosine was weighed and put in a eppendorf tube, then 0.75 mL of sterile PBS was added. After vortexing, a clear solution was formed. Make 1 mg/mL solution daily by diluting 100 μL of 10 mg/mL miltefosine solution in 900 μL sterile PBS. • b. Vehicle control: 5% (v/v) DMSO, 50% (v/v) PEG 400, 10% (v/v) Ethanol, and 35% (v/v) distilled water. • c. Compound 47 (2 mg/mL solution of compound 47 in PEG 400/Ethanol vehicle): […]. Dilute the above solution 1:20 with PEG 400/EtOH/water daily. After vortexing and warming up at 37° C. for 30 min., a clear solution formed. • d. Compound 48 (2 mg/mL solution of compound 48 in PEG 400/Ethanol vehicle): 6.8 mg of compound 48 was dissolved in 0.17 mL of DMSO to make a 40 mg/mL stock solution. After vortexing, a yellowish-brown solution was formed. Diluted the above solution 1:20 with PEG 400/EtOH/water daily. After vortexing a clear solution formed. • e. Compound 50 (2 mg/mL solution of compound 50 in PEG 400/Ethanol vehicle): 8.4 mg of compound 50 was dissolved in 0.21 mL of DMSO to make a 40 mg/mL stock solution. After vortexing, a dark yellowish-brown solution was formed. Diluted the above solution 1:20 with PEG 400/EtOH/water. After vortexing a clear solution formed.
(§1) Compounds 47, 48, and 50 were then evaluated in animal studies with BALB/c mice with leishmaniasis. Compounds were delivered via i.p. injection at 10 mg/kg, with untreated, vehicle, and miltefosine controls as described in Table 2. […] Miltefosine, the only oral treatment currently available to treat leishmaniasis in humans, was also evaluated in the BALB/c mice for comparison purposes.

[3] = Body and organ weights of infected, treated BALB/c mice; type: in vivo; conditions: for Body weight / Mean body weight of mice Post-treatment: 10 mg/kg i.p.; for Body weight: individual mice, Table 4; for Mean body weight of mice Post-treatment / Mean body weight of mice Pre-treatment: group mean; for Mean body weight of mice Pre-treatment: pre-treatment (baseline)
Description: as §1

[4] = HepG2, read-out: IC50 mammalian HepG2 cells
[5] = HepG2, read-out: IC50 against the HepG2 cell line

C=C[C@@H](C#CC#C[C@H](O)CCCCCCCCCCCCCCC)OC(C)=O (stereo in doubt) [Compound 44, (3S,8R)-8-hydroxytricosa-1-en-4,6-diyn-3-yl acetate]
MIC S. pyogenes (S. pyogenes): >1000 | MIC S. aureus (S. aureus 13709): >1000 | MIC C. glabrata (C. glabrata): >1000 | MIC C. albicans (C. albicans): >1000 | MIC E. faecalis (E. faecalis): >1000 | IC50 (Leishmania donovani): 0.287 µM | MIC P. aeruginosa (P. aeruginosa): >1000 | MIC B. subtilis (B. subtilis): >1000 | IC50 [1]: 2.14 µg/mL | MIC B. anthracis (B. anthracis): >1000

C=C[C@H](C#CC#C[C@@H](O)CCCCCCCCC)OC(C)=O [Compound 3, (3R,8S)-8-hydroxyheptadeca-1-en-4,6-diyn-3-yl acetate]
anti-Leishmanial activity at 10 μM (Leishmania amazonensis; 10 μM): no anti-Leishmanial activity | IC50 (Leishmania amazonensis; Macrophage, read-out: IC50 Leishmania in infected macrophages): > 10 µM | IC50 [1]: 8.15 µg/mL

C=C[C@@H](C#CC#C[C@H](O)CCC)OC(C)=O [Compound 20, (3S,8R)-8-hydroxyundeca-1-en-4,6-diyn-3-yl acetate]
MIC S. pyogenes (S. pyogenes): 250 | MIC S. aureus (S. aureus 13709): 1000 | MIC C. glabrata (C. glabrata): 250 | MIC C. albicans (C. albicans): 250 | MIC E. faecalis (E. faecalis): 1000 | Selectivity Index (Leishmania donovani): 290 | IC50 (Leishmania donovani): 0.197 µM | MIC P. aeruginosa (P. aeruginosa): >1000 | MIC B. subtilis (B. subtilis): 250 | IC50 [1]: 9.18 µg/mL | MIC B. anthracis (B. anthracis): 1000 | IC50 (HepG2 cells; [4]): 57 ± 2 µM

C=C[C@@H](C#CC#C[C@H](N)CCCCCCCCC)OC(C)=O [Compound 45, (3S,8R)-8-aminoheptadeca-1-en-4,6-diyn-3-yl acetate]
MIC S. pyogenes (S. pyogenes): 250 | MIC S. aureus (S. aureus 13709): 1000 | MIC C. glabrata (C. glabrata): 500 | MIC C. albicans (C. albicans): 250 | MIC E. faecalis (E. faecalis): 1000 | MIC P. aeruginosa (P. aeruginosa): >1000 | MIC B. subtilis (B. subtilis): 250 | MIC B. anthracis (B. anthracis): 250

C=C[C@@H](C#CC#C[C@@H](CCCCCCCCC)NS(C)(=O)=O)OC(C)=O [Compound 46, (3S,8R)-8-(methylsulfonamido)heptadeca-1-en-4,6-diyn-3-yl acetate]
MIC S. pyogenes (S. pyogenes): 8 | MIC S. aureus (S. aureus 13709): >1000 | MIC C. glabrata (C. glabrata): >1000 | MIC C. albicans (C. albicans): >1000 | MIC E. faecalis (E. faecalis): >1000 | Selectivity Index (Leishmania donovani): 530 | IC50 (Leishmania donovani): 0.055 µM | MIC P. aeruginosa (P. aeruginosa): >1000 | MIC B. subtilis (B. subtilis): 4 | IC50 [1]: 4.47 µg/mL | MIC B. anthracis (B. anthracis): >1000 | IC50 (HepG2 cells; [4]): 29 ± 1 µM

C=C[C@@H](C#CC#C[C@@H](CCCCCCCCC)NC(=O)c1ccccc1)OC(C)=O [Compound 47, (3S,8R)-8-benzamidoheptadeca-1-en-4,6-diyn-3-yl acetate]
MIC S. pyogenes (S. pyogenes): >1000 | MIC S. aureus (S. aureus 13709): >1000 | MIC C. glabrata (C. glabrata): >1000 | MIC C. albicans (C. albicans): >1000 | MIC E. faecalis (E. faecalis): >1000 | Selectivity Index (Leishmania donovani): 14,000 | IC50 (Leishmania donovani): 0.035 µM | MIC P. aeruginosa (P. aeruginosa): >1000 | LDU mean ± SD [2]: 2979.6 | % Reduction (Average) in liver parasitemia [2]: 26.0% | % Reduction (Average) in liver parasitemia ([2]; listed as compound 47): 26% | # of amastigotes per 200 nuclei [2]: 596 and 543 and 595 and 582 | LDU [2]: 2960.3 and 2834.7 and 2961.0 and 3162.3 | MIC B. subtilis (B. subtilis): >1000 | IC50 [1]: 4.85 µg/mL | MIC B. anthracis (B. anthracis): >1000 | IC50 (HepG2 cells; [5]): 486 ± 14 µM | IC50 (HepG2 cells; [4]): 486 ± 14 µM | Body weight [3]: 18.3 g (2×) and 19.5 g and 18.2 g | Mean body weight of mice Post-treatment [3]: 18.6 g | Mean body weight of mice Pre-treatment [3]: 19.2 g

C=C[C@@H](C#CC#C[C@@H](CCCCCCCCC)NCCCC)OC(C)=O [Compound 48, (3S,8R)-8-(butylamino)heptadeca-1-en-4,6-diyn-3-yl acetate]
MIC S. pyogenes (S. pyogenes): 250 | MIC S. aureus (S. aureus 13709): 500 | MIC C. glabrata (C. glabrata): >1000 | MIC C. albicans (C. albicans): 1000 | MIC E. faecalis (E. faecalis): 500 | Selectivity Index (Leishmania donovani): 10,000 | IC50 (Leishmania donovani): 0.034 µM | MIC P. aeruginosa (P. aeruginosa): >1000 | LDU mean ± SD [2]: 2721.9 | % Reduction (Average) in liver parasitemia [2]: 32.4% | % Reduction (Average) in liver parasitemia ([2]; listed as compound 48): 32% | # of amastigotes per 200 nuclei [2]: 536 and 529 and 498 and 476 | LDU [2]: 2541.4 and 2830.2 and 2913.1 and 2603.0 | MIC B. subtilis (B. subtilis): 125 | IC50 [1]: 5.72 µg/mL | MIC B. anthracis (B. anthracis): 250 | IC50 (HepG2 cells; [5]): 342 ± 46 µM | IC50 (HepG2 cells; [4]): 342 ± 46 µM | Body weight [3]: 17.2 g and 19.2 g and 19.8 g and 19.0 g | Mean body weight of mice Post-treatment [3]: 18.8 g | Mean body weight of mice Pre-treatment [3]: 19.3 g

C=C[C@@H](C#CC#C[C@@H](CCCCCCCCC)OS(C)(=O)=O)OC(C)=O [Compound 49, (3S,8R)-8-((methylsulfonyl)oxy)heptadeca-1-en-4,6-diyn-3-yl acetate]
MIC S. pyogenes (S. pyogenes): 125 | MIC S. aureus (S. aureus 13709): 250 | MIC C. glabrata (C. glabrata): >1000 | MIC C. albicans (C. albicans): >1000 | MIC E. faecalis (E. faecalis): 500 | IC50 (Leishmania donovani): 0.061 µM | MIC P. aeruginosa (P. aeruginosa): >1000 | MIC B. subtilis (B. subtilis): 250 | IC50 [1]: 2.13 µg/mL | MIC B. anthracis (B. anthracis): 250
